Measured values: patent US7109296B2, “Human 5-HT3-C protein” (Ortho-McNeil Pharmaceutical, Inc., priority 1999, dated 2006)
Where a SMILES comes first, the peptide text is derived from it.

Key:
Format in all cases: cell-based
[1] = molecular target: T1, human 5-HT3-C (Homo sapiens, UniProt Q8WXA8); experiment: Two-electrode voltage clamp, Xenopus oocytes injected with 5-HT3-C cRNA alone; conditions: for sensitivity of oocytes to neuroactive compound: >100 μM, only 5-HT3-C cRNA (33.5 ng), n=5
T1 construct: Characterization of the Function of Protein Encoded by p5HT3CR in Xenopus oocvtes; expressed in transfected cells; host or cells: Xenopus laevis oocytes injected with in vitro transcribed cRNA (pGEM HE)
T1 sequence (Q8WXA8 28-447): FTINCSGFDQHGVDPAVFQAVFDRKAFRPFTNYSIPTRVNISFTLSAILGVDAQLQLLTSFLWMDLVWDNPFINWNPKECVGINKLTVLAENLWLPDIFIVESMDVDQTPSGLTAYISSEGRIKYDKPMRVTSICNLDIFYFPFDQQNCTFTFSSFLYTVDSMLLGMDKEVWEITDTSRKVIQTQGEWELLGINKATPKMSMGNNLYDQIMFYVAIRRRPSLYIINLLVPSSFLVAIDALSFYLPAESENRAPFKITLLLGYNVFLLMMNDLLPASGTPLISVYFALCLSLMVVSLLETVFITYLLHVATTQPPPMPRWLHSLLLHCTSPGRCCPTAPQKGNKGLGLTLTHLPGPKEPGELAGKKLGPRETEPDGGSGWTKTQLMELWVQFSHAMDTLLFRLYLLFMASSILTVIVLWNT
Method: (§1) Characterization of the Function of Protein Encoded by p5HT3CR in Xenopus oocvtes Xenopus laevis oocytes were prepared and injected using standard methods previously described and known in the art (Fraser et al., 1993). Ovarian lobes from adult female Xenopus laevis (Nasco, Fort Atkinson, Wis.) were teased apart, rinsed several times in nominally Ca-free saline containing (in mM): NaCl 82.5, KCl 2.5, MgCl2 1, HEPES 5, adjusted to pH 7.0 with NaOH(OR-2), and gently shaken in OR-2 containing 0.2% collagenase Type 1 (ICN Biomedicals, Aurora, Ohio) for 2–5 hours. When approximately 50% of the follicular layers were removed, Stage V and VI oocytes were selected and rinsed in media consisting of 75% OR-2 and 25% ND-96. The ND-96 contained (in mM): NaCl 100, KCl 2, MgCl2 1, CaCl2 1.8, HEPES 5, Na pyruvate 2.5, gentamicin (50 ug/ml), adjusted to pH 7.0 with NaOH. […] For in vitro transcription, pGEM HE (Liman et al., 1992) containing human 5-HT3-A (Genbank D49394) or 5-HT3-C cDNA was linearized with NheI and transcribed with T7 RNA polymerase (Stratagene) in the presence of the cap analog m7G(5′)ppp(5′)G. The synthesized cRNA was purified with a Sephadex G-50 spin column. […] Control oocytes were injected with 50 nl of water. Oocytes were incubated for 2–14 days in ND-96 before analysis for expression of the human 5-HT3-C. Incubations and collagenase digestion were carried out at room temperature. Injected oocytes were maintained in 48 well cell culture clusters (Costar, Cambridge, Mass.) at 18° C. Whole cell agonist-induced currents were measured 1–14 days after injection with a conventional two-electrode voltage clamp (GeneClamp500, Axon Instruments, Foster City, Calif.) using standard methods previously described and known in the art (Dascal, 1987). The microelectrodes were filled with 3 M KCl, which had resistances of 1 and 2 MΩ. Cells were continuously perfused with ND96 at 10 ml/min at room temperature unless indicated. Membrane voltage was clamped at −70 mV unless indicated.

[2] = molecular target: T2, 5-HT3-C together with nicotinic ACh receptor subunits β1, β2 and β3 (Homo sapiens, UniProt Q8WXA8); experiment: Two-electrode voltage clamp, oocytes injected with 5-HT3-C together with nicotinic ACh receptor subunits β1, β2 and β3; conditions: >100 μM; 5-HT3-C with β1, β2 and β3 (0.2–0.25 ng); n=5;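 also: oocytes expressing the subunits for 2–14 days, voltage-clamped at −70 mV under continuous ND96 perfusion at room temperature, with water-injected oocytes serving as controls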
T2 construct: Characterization of the Function of Protein Encoded by p5HT3CR in Xenopus oocvtes; expressed in transfected cells; host or cells: Xenopus laevis oocytes injected with cRNA
T2 sequence (Q8WXA8 28-447): T1 sequence (Q8WXA8 28-447)

[3] = molecular target: T3, 5-HT3-C together with nicotinic ACh receptor a6 subunit (Homo sapiens, UniProt Q15825+Q8WXA8); experiment: Two-electrode voltage clamp, oocytes injected with 5-HT3-C together with nicotinic ACh receptor α6 subunit; conditions: 500 μM; eight days after injection; 5-HT3-C 0.67 ng, a6 1 ng/oocyte
T3 construct: Characterization of the Function of Protein Encoded by p5HT3CR in Xenopus oocvtes; expressed in transfected cells; host or cells: Xenopus laevis oocytes injected with cRNA
Method: Characterization of the Function of Protein Encoded by p5HT3CR in Xenopus oocvtes Xenopus laevis oocytes were prepared and injected using standard methods previously described and known in the art (Fraser et al., 1993). Ovarian lobes from adult female Xenopus laevis (Nasco, Fort Atkinson, Wis.) were teased apart, rinsed several times in nominally Ca-free saline containing (in mM): NaCl 82.5, KCl 2.5, MgCl2 1, HEPES 5, adjusted to pH 7.0 with NaOH(OR-2), and gently shaken in OR-2 containing 0.2% collagenase Type 1 (ICN Biomedicals, Aurora, Ohio) for 2–5 hours. When approximately 50% of the follicular layers were removed, Stage V and VI oocytes were selected and rinsed in media consisting of 75% OR-2 and 25% ND-96. The ND-96 contained (in mM): NaCl 100, KCl 2, MgCl2 1, CaCl2 1.8, HEPES 5, Na pyruvate 2.5, gentamicin (50 ug/ml), adjusted to pH 7.0 with NaOH. […] For in vitro transcription, pGEM HE (Liman et al., 1992) containing human 5-HT3-A (Genbank D49394) or 5-HT3-C cDNA was linearized with NheI and transcribed with T7 RNA polymerase (Stratagene) in the presence of the cap analog m7G(5′)ppp(5′)G. The synthesized cRNA was purified with a Sephadex G-50 spin column. Oocytes were injected with 50 nl of the human serotonin 5-HT3-A receptor with or without the 5-HT3-C RNA (0.02 and 0.002–0.2 ng each) or other channel or receptor subunit. Control oocytes were injected with 50 nl of water. Oocytes were incubated for 2–14 days in ND-96 before analysis for expression of the human 5-HT3-C. Incubations and collagenase digestion were carried out at room temperature. Injected oocytes were maintained in 48 well cell culture clusters (Costar, Cambridge, Mass.) at 18° C. Whole cell agonist-induced currents were measured 1–14 days after injection with a conventional two-electrode voltage clamp (GeneClamp500, Axon Instruments, Foster City, Calif.) using standard methods previously described and known in the art (Dascal, 1987). The microelectrodes were filled with 3 M KCl, which had resistances of 1 and 2 MΩ. […]

[4] = molecular target: T4, 5-HT3-B and 5-HT3-C (Homo sapiens, UniProt O95264+Q8WXA8); experiment: Two-electrode voltage clamp, oocytes co-injected with 5-HT3-B and 5-HT3-C; conditions: 100 μM; 5-HT3-B 3.3 ng, 5-HT3-C 3.35 ng/oocyte
T4 construct: Characterization of the Function of Protein Encoded by p5HT3CR in Xenopus oocvtes; expressed in transfected cells; host or cells: Xenopus laevis oocytes co-injected with cRNAs
T4 sequence (O95264 22-441): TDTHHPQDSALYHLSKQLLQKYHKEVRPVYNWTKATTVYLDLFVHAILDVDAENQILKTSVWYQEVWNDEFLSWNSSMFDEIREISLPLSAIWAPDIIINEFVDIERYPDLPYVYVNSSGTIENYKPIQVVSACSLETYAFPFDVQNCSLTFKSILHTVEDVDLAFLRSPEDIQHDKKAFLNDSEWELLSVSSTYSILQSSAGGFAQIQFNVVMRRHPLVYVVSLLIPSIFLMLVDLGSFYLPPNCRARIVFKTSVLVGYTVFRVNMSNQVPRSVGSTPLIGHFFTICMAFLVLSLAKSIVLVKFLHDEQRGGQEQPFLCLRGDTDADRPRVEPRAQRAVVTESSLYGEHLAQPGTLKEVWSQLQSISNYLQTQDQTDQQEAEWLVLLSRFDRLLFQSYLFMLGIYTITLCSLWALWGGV
T4 sequence (Q8WXA8 28-447): T1 sequence (Q8WXA8 28-447)
Method: as §1

[5] = 10 μM, oocytes injected with 33.3 ng 5-HT3-C cRNA

T3 sequence (Q15825 26-494, one chain of several): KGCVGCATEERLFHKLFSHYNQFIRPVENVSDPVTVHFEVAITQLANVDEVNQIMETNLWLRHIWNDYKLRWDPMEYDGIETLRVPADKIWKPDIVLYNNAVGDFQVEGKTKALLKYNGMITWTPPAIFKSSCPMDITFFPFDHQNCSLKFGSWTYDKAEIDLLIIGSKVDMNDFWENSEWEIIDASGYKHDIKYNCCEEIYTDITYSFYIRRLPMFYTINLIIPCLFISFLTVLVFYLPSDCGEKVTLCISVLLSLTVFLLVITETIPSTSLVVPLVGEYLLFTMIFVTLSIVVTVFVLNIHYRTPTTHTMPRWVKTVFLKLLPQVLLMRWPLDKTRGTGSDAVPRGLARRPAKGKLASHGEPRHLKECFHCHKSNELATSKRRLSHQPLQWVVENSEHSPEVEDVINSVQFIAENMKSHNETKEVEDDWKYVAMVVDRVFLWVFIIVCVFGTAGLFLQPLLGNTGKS

sensitivity of oocytes to neuroactive compound [1]	sensitivity of oocytes to neuroactive compound [2]	Compound	also measured
insensitive	insensitive	NCCc1ccc(O)c(O)c1 [DA, dopamine]	effect of agonist (agonist-induced current) ([1]; 100 μM, oocytes injected with 33.5 ng 5-HT3-C): No effect
insensitive	insensitive	CC(=O)N[C@@H](CS)C(=O)O [N-acetyl-L-cysteine]	–
insensitive	insensitive	CC(=O)N[C@@H](CC(=O)O)C(=O)N[C@@H](CCC(=O)O)C(=O)O [acetyl-aspartyl-L-glutamic acid] (Ac-Asp-Glu-OH)	–
insensitive	insensitive	N=C(N)NCCCCN [agmatine]	–
insensitive	insensitive	NC/C=C\C(=O)O [cis-4 aminocrotonic acid]	–
insensitive	insensitive	NCC(=O)O [glycine]	effect of agonist (agonist-induced current) ([1]; 100 M, oocytes injected with 33.3 ng 5-HT3-C cRNA): No effect
insensitive	insensitive	NCCc1c[nH]cn1 [histamine]	effect of agonist (agonist-induced current) [1, 5]: No effect
insensitive	insensitive	COc1ccc2[nH]cc(CCNC(C)=O)c2c1 [melatonin]	–
insensitive	insensitive	NCC(O)c1ccc(O)cc1 (centres unmarked) [octopamine]	–
insensitive	insensitive	NCCS(=O)(=O)O [taurine]	–
insensitive	insensitive	N[C@@H](Cc1c[nH]c2ccccc12)C(=O)O [tryptophan]	–
insensitive	insensitive	NC(=O)[C@@H](N)Cc1c[nH]c2ccccc12 [tryptophanamide]	–
insensitive	insensitive	NCCc1ccc(O)cc1 [tyramine]	–

Continued, compound first:

Compound	sensitivity of oocytes to neuroactive compound [1]	sensitivity of oocytes to neuroactive compound [2]	also measured
O=C(O)Cc1c[nH]c2ccc(O)cc12 [5-hydroxyindolacetic acid]	insensitive	insensitive	–
O=C(O)c1cc2cc(O)ccc2[nH]1 [5-hydroxyindole 2-carboxylic acid]	insensitive	insensitive	–
NC(=O)Cc1c[nH]c2ccc(O)cc12 [5-hydroxyindole 3-acetamide]	insensitive	insensitive	–
COc1cc2c(CCNC(C)=O)c[nH]c2cc1O [6-hydroxymelatonin]	insensitive	insensitive	–
CC(=O)OCC[N+](C)(C)C [ACh]	insensitive	insensitive	effect of agonist (agonist-induced current) [1, 5]: No effect; effect of agonist (agonist-induced current) ([1]; 500 μM, oocytes injected with 33.5 ng 5-HT3-C): No effect; responsiveness of oocytes to agonist [3]: not responsive
NCCCC(=O)O [GABA]	insensitive	insensitive	effect of agonist (agonist-induced current) ([1]; >30 μM, oocytes injected with 33.3 ng 5-HT3-C cRNA): No effect
N[C@H](CC(=O)O)C(=O)O [L-aspartate, L- and D-aspartate]	insensitive	insensitive	–
CC(=O)NCCc1c[nH]c2ccc(O)cc12 [N-acetyl serotonin]	insensitive	insensitive	–
CNCCc1c[nH]c2ccc(O)cc12 [N-ω-methyl-5-HT]	–	–	responsiveness of oocytes to agonist [4]: unresponsive
N[C@@H]1CONC1=O [d-cycloserine]	insensitive	insensitive	–
N[C@@H](CCC(=O)O)C(=O)O [glutamate]	insensitive	insensitive	–
NC[C@H](O)c1ccc(O)c(O)c1 [norepinephrine]	insensitive	insensitive	–
NCCc1c[nH]c2ccccc12 [tryptamine]	insensitive	insensitive	–
NCCC(=O)O [β-alanine]	insensitive	insensitive	–
NCCc1ccccc1 [β-phenylethylamine]	insensitive	insensitive	–
